These results are taken from patent publication US10793559B2, “Chemical compounds” (GlaxoSmithKline Intellectual Property Development Limited, priority 2016, dated 2020).

Several values for one entry are separate records, joined by “and”; a condition that tells them apart may be missing. Equal values may be shown once. Where a name gives a salt, the structure may show the parent alone.

PI3K-Delta, sequence (O00329 whole entry): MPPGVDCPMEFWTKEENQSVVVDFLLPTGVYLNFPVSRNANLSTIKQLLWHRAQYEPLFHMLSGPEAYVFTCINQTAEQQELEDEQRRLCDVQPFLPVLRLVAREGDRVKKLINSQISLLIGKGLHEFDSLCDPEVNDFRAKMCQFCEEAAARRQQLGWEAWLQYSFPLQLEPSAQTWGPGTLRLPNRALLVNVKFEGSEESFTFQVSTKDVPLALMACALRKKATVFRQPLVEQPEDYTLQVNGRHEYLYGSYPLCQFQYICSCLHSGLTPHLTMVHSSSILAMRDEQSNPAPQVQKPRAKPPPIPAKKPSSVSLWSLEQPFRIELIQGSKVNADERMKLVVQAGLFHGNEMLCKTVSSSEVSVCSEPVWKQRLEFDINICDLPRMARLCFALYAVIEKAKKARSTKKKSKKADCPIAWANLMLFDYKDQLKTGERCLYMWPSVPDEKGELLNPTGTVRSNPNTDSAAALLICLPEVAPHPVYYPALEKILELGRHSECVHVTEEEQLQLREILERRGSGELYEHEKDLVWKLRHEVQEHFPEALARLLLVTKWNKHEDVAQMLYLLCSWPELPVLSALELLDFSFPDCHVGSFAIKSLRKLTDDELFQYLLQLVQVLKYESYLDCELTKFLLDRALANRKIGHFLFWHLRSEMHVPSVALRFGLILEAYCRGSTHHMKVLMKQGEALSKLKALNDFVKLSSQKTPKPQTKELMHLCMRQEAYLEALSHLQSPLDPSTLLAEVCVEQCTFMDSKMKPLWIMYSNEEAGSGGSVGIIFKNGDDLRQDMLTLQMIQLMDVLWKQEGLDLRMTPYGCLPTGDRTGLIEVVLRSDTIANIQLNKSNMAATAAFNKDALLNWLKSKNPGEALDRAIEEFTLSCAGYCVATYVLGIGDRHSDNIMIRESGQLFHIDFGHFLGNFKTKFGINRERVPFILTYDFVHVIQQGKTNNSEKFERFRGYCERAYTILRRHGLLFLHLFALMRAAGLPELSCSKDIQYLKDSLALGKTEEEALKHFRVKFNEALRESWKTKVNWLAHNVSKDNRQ
PI3K-Delta, sequence (P27986 whole entry partner): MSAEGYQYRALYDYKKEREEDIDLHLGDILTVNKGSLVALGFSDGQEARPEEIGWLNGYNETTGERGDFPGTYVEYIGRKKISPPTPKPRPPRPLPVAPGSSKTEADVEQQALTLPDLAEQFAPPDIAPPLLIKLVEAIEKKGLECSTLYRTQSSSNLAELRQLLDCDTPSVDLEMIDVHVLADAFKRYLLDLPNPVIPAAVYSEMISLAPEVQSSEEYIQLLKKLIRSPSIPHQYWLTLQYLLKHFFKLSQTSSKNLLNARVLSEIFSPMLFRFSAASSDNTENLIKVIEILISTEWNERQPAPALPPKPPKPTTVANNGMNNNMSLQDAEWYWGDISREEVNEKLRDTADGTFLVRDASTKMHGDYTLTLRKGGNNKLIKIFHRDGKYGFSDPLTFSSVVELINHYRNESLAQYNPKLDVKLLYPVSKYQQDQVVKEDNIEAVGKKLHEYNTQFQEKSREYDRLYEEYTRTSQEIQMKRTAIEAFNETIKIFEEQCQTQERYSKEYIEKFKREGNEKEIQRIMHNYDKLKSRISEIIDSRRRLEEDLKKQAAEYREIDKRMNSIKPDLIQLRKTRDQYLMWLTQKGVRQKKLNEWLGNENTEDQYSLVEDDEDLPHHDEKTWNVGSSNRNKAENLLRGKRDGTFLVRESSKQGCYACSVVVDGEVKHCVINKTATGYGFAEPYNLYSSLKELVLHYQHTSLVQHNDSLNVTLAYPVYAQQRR

The target of this test is PI3K-Delta (Homo sapiens, UniProt O00329). Nature of the test: PI3K HTRF assay (PI3K Delta). It counts as biochemical. Conditions: PI3K-Delta 1.5 nM, 80 μM ATP, 10 μM PIP2 final, read-out: mean pIC50 in the PI3K Delta assay (converted). The procedure:
Biological Data PI3K HTRF Assay
The binding of compounds to PI3K-alpha/beta/delta/gamma is determined by homogeneous time resolved fluorescence (HTRF) assays as follows;
Briefly, solid compound is dissolved in 100% DMSO at a concentration of 2 mM. Dilutions are prepared in 100% DMSO using a 1 in 4 serial step dilution. The dilutions are transferred to black low volume Greiner assay plates ensuring that the DMSO concentration is constant across the plate at 1% (0.1 ul/well).
PI3K Reaction Buffer (contains 50 mM HEPES pH7.0 (NaOH), 150 mM NaCl, 10 mM MgCl2, 2.3 mM sodium cholate, 10 μM CHAPS made up in milliQ water). Fresh DTT is added at a final concentration of 1 mM on the day of use. Wortmannin at a concentration sufficient to produce 100% inhibition (8.33e-6 M) is added to column 18 of compound plates.
Enzyme solutions: 1× PI3K assay Buffer containing: • 550 pM PI3K-Alpha enzyme (275 pM final assay concentration) • 800 pM PI3K-Beta enzyme (400 pM final assay concentration) • 3 nM PI3K-Delta enzyme (1.5 nM final assay concentration) • 10 nM PI3K-Gamma enzyme (5 nM final assay concentration)
These concentrations are optimal to achieve a signal:background of between 1.5-4.5. The enzyme solution is added to columns 1-24 (3 ul/well) and plates are incubated for 15 minutes at room temperature.
Substrate solution: 1× PI3K assay buffer containing: • PI3K-Alpha: 500 μM ATP, 20 μM PIP2 and 120 nM biotin-PIP3. (Final assay concentrations are 250 μM ATP, 10 μM PIP2 (both at Km) and 40 nM biotin-PIP3) • PI3K-Beta: 800 μM ATP, 20 μM PIP2 and 120 nM biotin-PIP3. (Final assay concentrations are 400 μM ATP, 10 μM PIP2 (both at Km) and 40 nM biotin-PIP3) • PI3K-Delta: […], 20 μM PIP2 and 120 nM biotin-PIP3. (Final assay concentrations are 80 μM ATP, 10 μM PIP2 (both at Km) and 40 nM biotin-PIP3) • PI3K-Gamma: 30 μM ATP, 20 μM PIP2 and 120 nM biotin-PIP3.
This is added to all wells and plates are incubated for 1 hour at room temperature.
Detection solution: PI3K Detection Buffer (contains 50 mM HEPES pH7.0 (HCl), 150 mM NaCl, 2.3 mM sodium cholate, 10 μM CHAPS, 240 mM potassium fluoride) containing 2 mM DTT (2× final concentration), 90 nM GRP-1 PH domain, 300 nM Streptavidin-APC and 24 nM Europium-anti-GST (6× final concentrations)
This is mixed left at room temperature (protected from light).
STOP solution: PI3K STOP Buffer (contains 50 mM HEPES pH7.0 (HCl), 150 mM NaCl, 2.3 mM sodium cholate, 10 μM CHAPS, 150 mM EDTA).
Detection solution is diluted 1:1 with STOP solution and added to all wells (3 ul/well). Plates are covered and incubated on the bench for 45-60 minutes. Plates are read on a PerkinElmer Envision, measuring TR-FRET between the complex formed between the GST-tagged PH domain and biotinylated PIP3 which both recruit fluorophores (Europium-labelled anti-GST & Strep-APC respectively). […], this complex is disrupted by the competitive action of non-biotinylated PIP3 (formed in the assay by the phosphorylation of PIP2 by the kinase & ATP). From this, the ratio of acceptor/donor was calculated (Aex=317 nm, Aem donor=615 nm, em acceptor=665 nm) and used for data analysis.
Background: In TR-FRET formats the signal depends on donor and acceptor labels being close together.
As to `COc1ncc(N2CCOCC2)cc1S(=O)(=O)Nc1ccnc(-c2ccc(CN3CCN(C(C)C)CC3)cc2F)c1` [Example 1, N-(2-(2-Fluoro-4-((4-isopropylpiperazin-1-yl)methyl)phenyl)pyridin-4-yl)-2-methoxy-5-morpholinopyridine-3-sulfonamide], the IC50 is 1 nM and ≤ 3.16 nM.

In the case of `COc1ncc(N2CCOCC2)cc1S(=O)(=O)Nc1ccnc(-c2ccc(CN3CCN(C(C)(C)C)CC3)cc2F)c1` [Example 2, N-(2-(4-((4-(tert-Butyl)piperazin-1-yl)methyl)-2-fluorophenyl)pyridin-4-yl)-2-methoxy-5-morpholinopyridine-3-sulfonamide], the IC50 is no more than 3.16 nM.

In the case of `COc1ncc(N2CCOCC2)cc1S(=O)(=O)Nc1ccnc(-c2ccc(CN3CCN(C(C)C)CC3)cc2)c1` [Example 3, N-(2-(4-((4-Isopropylpiperazin-1-yl)methyl)phenyl)pyridin-4-yl)-2-methoxy-5-morpholinopyridine-3-sulfonamide], the IC50 is no more than 3.16 nM.

Consider `COc1ncc(N2CCOCC2)cc1S(=O)(=O)Nc1ccnc(-c2ccc(CN3CCN(C(C)C)CC3)c(F)c2)c1` [Example 5, N-(2-(3-Fluoro-4-((4-isopropylpiperazin-1-yl)methyl)phenyl)pyridin-4-yl)-2-methoxy-5-morpholinopyridine-3-sulfonamide], for which the IC50 was no more than 3.16 nM.

As to `COc1ncc(N2CCOCC2)cc1S(=O)(=O)Nc1ccnc(-c2ccc(CN3CCN(C(C)(C)C)CC3)cc2)c1` [Example 6, N-(2-(4-((4-(tert-Butyl)piperazin-1-yl)methyl)phenyl)pyridin-4-yl)-2-methoxy-5-morpholinopyridine-3-sulfonamide], the IC50 is no more than 3.16 nM.

For `COc1ncc(N2CCOCC2)cc1S(=O)(=O)Nc1ccnc(-c2ccc(CN3CCN(C4CCC4)CC3)cc2)c1` [Example 7], the IC50 was no more than 3.16 nM.

Turning to `COc1ncc(N2CCOCC2)cc1S(=O)(=O)Nc1ccnc(-c2c(F)cc(CN3CCN(C(C)C)CC3)cc2F)c1` [Example 8, N-(2-(2,6-Difluoro-4-((4-isopropylpiperazin-1-yl)methyl)phenyl)pyridin-4-yl)-2-methoxy-5-morpholinopyridine-3-sulfonamide], the IC50 was no more than 3.16 nM.

Take `CCC(C)N1CCN(Cc2ccc(-c3cc(NS(=O)(=O)c4cc(N5CCOCC5)cnc4OC)ccn3)cc2)CC1` (stereo not drawn) [Example 9]: the IC50 was no more than 3.16 nM.

`COc1ncc(N2CCOCC2)cc1S(=O)(=O)Nc1ccnc(-c2cc(F)c(CN3CCN(C(C)C)CC3)c(F)c2)c1` [Example 12, N-(2-(3,5-Difluoro-4-((4-isopropylpiperazin-1-yl)methyl)phenyl)pyridin-4-yl)-2-methoxy-5-morpholinopyridine-3-sulfonamide]: the IC50 was no more than 3.16 nM.

Consider `COc1ncc(N2CCOCC2)cc1S(=O)(=O)Nc1ccnc(-c2ccc(CN3CCN(C4COC4)CC3)cc2)c1` [Example 13], for which the IC50 was no more than 3.16 nM.

Regarding `COc1ncc(N2CCOCC2)cc1S(=O)(=O)Nc1ccnc(-c2ccc(CN3CCN(C(C)C)CC3)c(F)c2F)c1` [Example 14, N-(2-(2,3-Difluoro-4-((4-isopropylpiperazin-1-yl)methyl)phenyl)pyridin-4-yl)-2-methoxy-5-morpholinopyridine-3-sulfonamide], the IC50 was no more than 3.16 nM.

In the case of `COc1ncc(N2CCOCC2)cc1S(=O)(=O)Nc1ccnc(-c2ccc(CN3CCN(C4COC4)CC3)cc2F)c1` [Example 15, N-(2-(2-Fluoro-4-((4-(oxetan-3-yl)piperazin-1-yl)methyl)phenyl)pyridin-4-yl)-2-methoxy-5-morpholinopyridine-3-sulfonamide, 3 formic acid salt], the IC50 is no more than 3.16 nM.

Turning to `COc1ncc(N2CCOCC2)cc1S(=O)(=O)Nc1ccnc(-c2ccc(CN3CCN(C4CCC4)CC3)cc2F)c1` [Example 16, N-(2-(4-((4-Cyclobutylpiperazin-1-yl)methyl)-2-fluorophenyppyridin-4-yl)-2-methoxy-5-morpholinopyridine-3-sulfonamide, 2.5 formic acid salt], the IC50 was no more than 3.16 nM.

With `COc1ncc(N2CCOCC2)cc1S(=O)(=O)Nc1ccnc(-c2cc(F)c(CN3CCN(C(C)C)CC3)cc2F)c1` [Example 17, N-(2-(2,5-Difluoro-4-((4-isopropylpiperazin-1-yl)methyl)phenyl)pyridin-4-yl)-2-methoxy-5-morpholinopyridine-3-sulfonamide], the IC50 was no more than 3.16 nM.

As to `COCCN1CCN(Cc2ccc(-c3cc(NS(=O)(=O)c4cc(N5CCOCC5)cnc4OC)ccn3)c(F)c2)CC1` [Example 18, N-(2-(2-Fluoro-4-((4-(2-methoxyethyl)piperazin-1-yl)methyl)phenyl)pyridin-4-yl)-2-methoxy-5-morpholinopyridine-3-sulfonamide, 1.2 formic acid salt], the IC50 was no more than 3.16 nM.

In the case of `COc1ncc(N2CCOCC2)cc1S(=O)(=O)Nc1ccnc(-c2ccc(CN3CCC(C)C3)cc2F)c1` (stereo not drawn) [Example 19, N-(2-(2-fluoro-4-((3-methylpyrrolidin-1-yl)methyl)phenyl)pyridin-4-yl)-2-methoxy-5-morpholinopyridine-3-sulfonamide], the IC50 is no more than 3.16 nM.

As to `COc1ncc(N2CCOCC2)cc1S(=O)(=O)Nc1ccnc(-c2ccc(CN3CCCCC3)cc2F)c1` [Example 21, N-(2-(2-fluoro-4-(piperidin-1-ylmethyl)phenyl)pyridin-4-yl)-2-methoxy-5-morpholinopyridine-3-sulfonamide], the IC50 was no more than 3.16 nM.

For the compound `COc1ncc(N2CCOCC2)cc1S(=O)(=O)Nc1ccnc(-c2ccc(CN3CCC(C(C)(C)O)CC3)cc2F)c1` [Example 22], the IC50 is no more than 3.16 nM.

As for `COc1ncc(N2CCOCC2)cc1S(=O)(=O)Nc1ccnc(-c2ccc(CN3C[C@@H](C)O[C@@H](C)C3)cc2)c1` [Example 23, N-(2-(4-(((cis)-2,6-Dimethylmorpholino)methyl)phenyl)pyridin-4-yl)-2-methoxy-5-morpholinopyridine-3-sulfonamide], the IC50 is no more than 3.16 nM.

In the case of `COc1ncc(N2CCOCC2)cc1S(=O)(=O)Nc1ccnc(-c2ccc(CN3CCOCC3)cc2)c1` [Example 24, 2-Methoxy-5-morpholino-N-(2-(4-(morpholinomethyl)phenyl)pyridin-4-yl)pyridine-3-sulfonamide], the IC50 was no more than 3.16 nM.

For the compound `COc1ncc(N2CCOCC2)cc1S(=O)(=O)Nc1ccnc(-c2ccc(CN3CCNCC3)cc2F)c1` [Example 25, N-(2-(2-Fluoro-4-(piperazin-1-ylmethyl)phenyl)pyridin-4-yl)-2-methoxy-5-morpholinopyridine-3-sulfonamide], the IC50 is no more than 3.16 nM.

Consider `CC(C)N1CCN(Cc2ccc(-c3cc(NS(=O)(=O)c4cc(N5CCOCC5)cnc4N(C)C)ccn3)c(F)c2)CC1` [Example 26, 2-(Dimethylamino)-N-(2-(2-fluoro-4-((4-isopropylpiperazin-1-yl)methyl)phenyl)pyridin-4-yl)-5-morpholinopyridine-3-sulfonamide], for which the IC50 was no more than 3.16 nM.

With `CN(C)c1ncc(N2CCOCC2)cc1S(=O)(=O)Nc1ccnc(-c2ccc(CN3CCN(C(C)(C)C)CC3)cc2F)c1` [Example 27, N-(2-(4-((4-(tert-Butyl)piperazin-1-yl)methyl)-2-fluorophenyl)pyridin-4-yl)-2-(dimethylamino)-5-morpholinopyridine-3-sulfonamide], the IC50 is no more than 3.16 nM.

For `COc1ncc(N2CCOCC2)cc1S(=O)(=O)Nc1ccnc(-c2cc(Cl)c(CN3CCN(C(C)C)CC3)cc2F)c1` [Example 35, N-(2-(5-Chloro-2-fluoro-4-((4-isopropylpiperazin-1-yl)methyl)phenyl)pyridin-4-yl)-2-methoxy-5-morpholinopyridine-3-sulfonamide], the IC50 was no more than 3.16 nM.
